Experimental data from patent US11401286B2 (Tetra Discovery Partners, LLC, priority 2012, dated 2022).
Where a name gives a salt, the structure may show the parent alone.

Target: PDE4D7 (Homo sapiens (Human), UniProt Q08499)
Conditions: read-out: PDE4D7 IC50

Sequence of PDE4D7 (Q08499 other isoform, or with tags, fused parts or gaps): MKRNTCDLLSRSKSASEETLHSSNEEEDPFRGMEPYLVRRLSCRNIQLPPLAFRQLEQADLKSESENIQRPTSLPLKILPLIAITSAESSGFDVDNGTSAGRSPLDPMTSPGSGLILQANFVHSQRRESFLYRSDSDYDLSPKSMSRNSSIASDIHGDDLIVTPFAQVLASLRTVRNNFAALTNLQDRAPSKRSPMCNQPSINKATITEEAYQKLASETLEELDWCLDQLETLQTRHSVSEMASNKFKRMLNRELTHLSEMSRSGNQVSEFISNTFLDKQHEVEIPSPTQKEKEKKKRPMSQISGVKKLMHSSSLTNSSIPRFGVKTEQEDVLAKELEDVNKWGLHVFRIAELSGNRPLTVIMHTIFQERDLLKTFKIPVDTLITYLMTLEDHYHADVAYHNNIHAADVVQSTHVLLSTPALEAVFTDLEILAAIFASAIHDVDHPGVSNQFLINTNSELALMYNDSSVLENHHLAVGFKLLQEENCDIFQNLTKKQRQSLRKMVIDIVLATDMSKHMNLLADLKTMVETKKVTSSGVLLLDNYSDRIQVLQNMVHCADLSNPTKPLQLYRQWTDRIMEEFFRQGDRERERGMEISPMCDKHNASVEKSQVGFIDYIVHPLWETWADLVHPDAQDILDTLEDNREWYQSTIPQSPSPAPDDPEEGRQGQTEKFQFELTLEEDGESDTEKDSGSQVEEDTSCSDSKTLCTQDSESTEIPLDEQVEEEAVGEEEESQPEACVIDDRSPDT

SMILES	IC50
NC(=O)Cc1ccc(S(=O)(=O)c2cc(-c3cccc(Cl)c3)nc3c2CCC3)cc1 [Example 267, 2-(4-((2-(3-chlorophenyl)-6,7-dihydro-5H-cyclopenta[b]pyridin-4-yl)sulfonyl)phenyl)acetamide]	> 1 µM

Same assay, conditions: read-out: PDE4D7 IC50; PDE4D7 without asterisk

IC50	SMILES
< 1 µM	O=S1(=O)CCCc2nc(-c3ccccc3)nc(Nc3ccc(CCO)cc3)c21 [Example 268, 4-((4-(2-hydroxyethyl)phenyl)amino)-2-phenyl-7,8-dihydro-6H-thiopyrano[3,2-d]pyrimidine 5,5-dioxide]
< 1 µM	NC(=O)Cc1ccc(Nc2nc(-c3ccccc3)nc3c2S(=O)(=O)CCC3)cc1 [Example 269, 2-(4-((5,5-dioxido-2-phenyl-7,8-dihydro-6H-thiopyrano[3,2-d]pyrimidin-4-yl)amino)phenyl)acetamide]
< 1 µM	CCCNC(=O)Cc1ccc(Nc2nc(-c3ccccc3)nc3c2S(=O)(=O)CCC3)cc1 [Example 270, 2-(4-((5,5-dioxido-2-phenyl-7,8-dihydro-6H-thiopyrano[3,2-d]pyrimidin-4-yl)amino)phenyl)-N-propylacetamide]
< 1 µM	NC(=O)Cc1ccc(Nc2nc(-c3cccc(Cl)c3)nc3c2SCCC3)cc1 [Example 271, 2-(4-((2-(3-chlorophenyl)-7,8-dihydro-6H-thiopyrano[3,2-d]pyrimidin-4-yl)amino)phenyl)acetamide]
< 1 µM	OCCc1ccc(Nc2nc(-c3cccc(Cl)c3)nc3c2SCCC3)cc1 [Example 272, 2-(4-((2-(3-chlorophenyl)-7,8-dihydro-6H-thiopyrano[3,2-d]pyrimidin-4-yl)amino)phenyl)ethanol]
< 1 µM	O=S1(=O)CCCc2nc(-c3cccc(Cl)c3)nc(Nc3ccc(CCO)cc3)c21 [Example 273, 2-(3-Chlorophenyl)-4-((4-(2-hydroxyethyl)phenyl)amino)-7,8-dihydro-6H-thiopyrano[3,2-d]pyrimidine 5,5-dioxide]
< 1 µM	NC(=O)Cc1ccc(Nc2nc(-c3cccc(Cl)c3)nc3c2S(=O)(=O)CCC3)cc1 [Example 274, 2-(4-((2-(3-chlorophenyl)-5,5-dioxido-7,8-dihydro-6H-thiopyrano[3,2-d]pyrimidin-4-yl)amino)phenyl)acetamide]
< 1 µM	O=C(O)Cc1ccc(Nc2nc(-c3cccc(Cl)c3)nc3c2S(=O)(=O)CCC3)cc1 [Example 275, 2-(4-((2-(3-chlorophenyl)-5,5-dioxido-7,8-dihydro-6H-thiopyrano[3,2-d]pyrimidin-4-yl)amino)phenyl)acetic acid]
> 1 µM	CCCNC(=O)Cc1ccc(Nc2nc(-c3cccc(Cl)c3)nc3c2S(=O)(=O)CCC3)cc1 [Example 276, 2-(4-((2-(3-Chlorophenyl)-5,5-dioxido-7,8-dihydro-6H-thiopyrano[3,2-d]pyrimidin-4-yl)amino)phenyl)-N-propylacetamide]
< 1 µM	NC(=O)Cc1ccc(Cc2nc(-c3cccc(Cl)c3)nc3c2S(=O)(=O)CCC3)cc1 [Example 277, 2-(4-((2-(3-Chlorophenyl)-5,5-dioxido-7,8-dihydro-6H-thiopyrano[3,2-d]pyrimidin-4-yl)methyl)phenyl)acetamide]
< 1 µM	O=S1(=O)CCCc2nc(-c3cccc(Cl)c3)nc(Cc3ccc(CCO)cc3)c21 [Example 278, 2-(3-chlorophenyl)-4-(4-(2-hydroxyethyl)benzyl)-7,8-dihydro-6H-thiopyrano[3,2-d]pyrimidine 5,5-dioxide]
< 1 µM	OCCc1ccc(Nc2nc(-c3cccc(Cl)c3)nc3c2SCC3)cc1 [Example 279, 2-(4-((2-(3-Chlorophenyl)-6,7-dihydrothieno[3,2-d]pyrimidin-4-yl)amino)phenyl)ethanol]
< 1 µM	NC(=O)Cc1ccc(Nc2nc(-c3cccc(Cl)c3)nc3c2SCC3)cc1 [Example 280, 2-(4-((2-(3-chlorophenyl)-6,7-dihydrothieno[3,2-d]pyrimidin-4-yl)amino)phenyl)acetamide]
< 1 µM	O=S1(=O)CCc2nc(-c3cccc(Cl)c3)nc(Nc3ccc(CCO)cc3)c21 [Example 281, 2-(3-Chlorophenyl)-4-((4-(2-hydroxyethyl)phenyl)amino)-6,7-dihydrothieno[3,2-d]pyrimidine 5,5-dioxide]
> 1 µM	NC(=O)Cc1ccc(Nc2nc(-c3cccc(Cl)c3)nc3c2S(=O)(=O)CC3)cc1 [Example 282, 2-(4-((2-(3-chlorophenyl)-5,5-dioxido-6,7-dihydrothieno[3,2-d]pyrimidin-4-yl)amino)phenyl)acetamide]
< 1 µM	OCCc1ccc(Nc2nc(C3CCCC3)nc3c2SCCC3)cc1 [Example 283, 2-(4-((2-Cyclopentyl-7,8-dihydro-6H-thiopyrano[3,2-d]pyrimidin-4-yl)amino)phenyl)ethanol]
< 1 µM	NC(=O)Cc1ccc(Nc2nc(C3CCCC3)nc3c2SCCC3)cc1 [Example 284, 2-(4-((2-cyclopentyl-7,8-dihydro-6H-thiopyrano[3,2-d]pyrimidin-4-yl)amino)phenyl)acetamide]
< 1 µM	O=S1(=O)CCCc2nc(C3CCCC3)nc(Nc3ccc(CCO)cc3)c21 [Example 285, 2-Cyclopentyl-4-((4-(2-hydroxyethyl)phenyl)amino)-7,8-dihydro-6H-thiopyrano[3,2-d]pyrimidine 5,5-dioxide]
< 1 µM	NC(=O)Cc1ccc(Nc2nc(C3CCCC3)nc3c2S(=O)(=O)CCC3)cc1 [Example 286, 2-(4-((2-cyclopentyl-5,5-dioxido-7,8-dihydro-6H-thiopyrano[3,2-d]pyrimidin-4-yl)amino)phenyl)acetamide]
< 1 µM	O=S1(=O)CCCc2nc(C3CCCC3)nc(Nc3ccc(CCCO)cc3)c21 [Example 287, 2-Cyclopentyl-4-((4-(3-hydroxypropyl)phenyl)amino)-7,8-dihydro-6H-thiopyrano[3,2-d]pyrimidine 5,5-dioxide]
< 1 µM	O=S1(=O)CCCc2nc(C3CCCC3)nc(Cc3ccc(CCO)cc3)c21 [Example 288, 2-Cyclopentyl-4-(4-(2-hydroxyethyl)benzyl)-7,8-dihydro-6H-thiopyrano[3,2-d]pyrimidine 5,5-dioxide]
> 1 µM	Cc1ccc(Cc2cc(-c3cccc(Cl)c3)nc3c2CCC3)cc1 [Example 289, 2-(3-Chlorophenyl)-4-(4-methylbenzyl)-6,7-dihydro-5H-cyclopenta[b]pyridine hydrochloride]
> 1 µM	Fc1ccc(Nc2cc(-c3cccc(Cl)c3)nc3c2CCC3)cc1 [Example 290, 2-(3-Chlorophenyl)-N-(4-fluorophenyl)-6,7-dihydro-5H-cyclopenta[b]pyridin-4-amine hydrochloride]
> 1 µM	N#CCc1ccc(Nc2c(Cl)c(-c3cccc(Cl)c3)nc3c2CCC3)cc1 [Example 291, 2-(4-((3-Chloro-2-(3-chlorophenyl)-6,7-dihydro-5H-cyclopenta[b]pyridin-4-yl)amino)phenyl)acetonitrile hydrochloride]
< 1 µM	CCc1c(C)nc(-c2ccc(Cl)s2)nc1Nc1ccc(B(O)O)cc1 [Example 292, [4-[[2-(5-Chloro-2-thienyl)-5-ethyl-6-methyl-pyrimidin-4-yl]amino]phenyl]boronic acid]
< 1 µM	OB1OCc2cc(Nc3nc(-c4ccc(Cl)s4)nc4c3CCC4)ccc21 [Example 293, 2-(5-Chloro-2-thienyl)-N-(1-hydroxy-3H-2,1-benzoxaborol-5-yl)-6,7-dihydro-5H-cyclopenta[d]pyrimidin-4-amine]
